Test results from US9260444B2, “Crystalline form of 2-((1′-n-hexyloxy) ethyl)-2-divinyl-pyropheophorbide-a and method for preparing thereof” (Zhejiang Hisun Pharmaceutical Co., Ltd., priority 2012, dated 2016).

Experiments:
esophageal cancer = settings: cited from earlier work
[1] = Long term stability experiment of the HPPH crystal; format: physicochemical; settings: for Total impurity (%) / Content (based on dry weight, %): Temp 25° C. ± 2° C., Humidity 60% ± 5%; for Content (based on dry weight, %): standard content 98.0% to 102.0%
Description: (§1) According to the Guidelines to the stability studies of active pharmaceutical ingredient and pharmaceutical preparation (Chinese Pharmacopoeia, 2010 Edition, the Second Part, Appendix XIX C) (Appendix 199 to 200), selecting the HPPH crystal sample prepared in Embodiment 1 (Lot No. S111101), mimicking pack to selling, placing it in an incubator at the temperature of 25° C.±2° C., and the relative humidity of 60%±5%, after 6 months, taking the sample out, and examining it with the key examination items for stability, then comparing the examination results with the results obtained in the 0 month.

[2] = Accelerated stability experiment of the HPPH crystal; format: physicochemical; settings: for Total impurity (%) / Content (based on dry weight, %): Temp 40° C. ± 2° C., Humidity 75% ± 5%; for Content (based on dry weight, %): standard content 98.0% to 102.0%
Description: as §1, with “placing” for “placing it”, “40°” for “25°”, “75%±5%,” for “60%±5%,”

Row | Substance | Photodynamic therapeutic efficacy (esophageal cancer; 5 esophageal cancer patients, very low dose) | Photosensitive side effect of skin (esophageal cancer; clinical observation, esophageal cancer patients) | Change of key stability examination items versus 0 month ([1]; 25° C. ± 2° C., relative humidity 60% ± 5%, after 6 months) | Total impurity (%) ([1]; 0 month) | Content (based on dry weight, %) ([1]; 0 month) [%] | Total impurity (%) ([1]; 6 months) | Content (based on dry weight, %) ([1]; 6 months) [%] | Content in the 6 month sample versus 0 month ([2]; 40° C. ± 2° C., relative humidity 75% ± 5%, after 6 months) | Total impurity (%) ([2]; 0 month) | Content (based on dry weight, %) ([2]; 0 month) [%] | Total impurity (%) ([2]; 6 months) | Content (based on dry weight, %) ([2]; 6 months) [%]
1 | 2-((1′-n-hexyloxy)ethyl)-2-divinyl-pyropheophorbide-a [HPPH] | very good photodynamic therapeutic efficacy | no photosensitive side effect of skin has been observed |  |  |  |  |  |  |  |  |  | 
2 | 2-((1′-n-hexyloxy)ethyl)-2-divinyl-pyropheophorbide-a [HPPH crystal] |  |  | no examination item has shown significant change | 0.25 | 99.9 | 0.26 | 99.8 | slightly lower, yet still within the acceptable range | 0.25 | 99.9 | 0.27 | 98.9
